For 15 molecules, IC50 results are on record in paper PMC6060961, “Synthesis of unsymmetrical disulfanes bearing 1,2,4-triazine scaffold and their in vitro screening towards anti-breast cancer activity” (Monatshefte Fur Chemie, 2018).

One data set deals with Fibroblasts. Put plainly: DNA synthesis assay ([3H]-thymidine incorporation), fibroblasts. The data set is classed as cell-based, human. To be noted: read-out: IC50 inhibition of [3H]-thymidine incorporation into DNA. A general note: Dividing cells build labelled thymidine or BrdU into new DNA.
In data set [1] the test system is normal human skin fibroblasts. Put plainly: Cell viability (MTT) assay, fibroblasts. The format is cell-based. The protocol: (§1) The viability of MCF-7 breast cancer cells was measured by the method of Carmichael using 3-(4,5-dimethylthiazol-2-yl)-2,5-diphenyltetrazolium (Table 2). In terms of reduction in cell viability, the compounds rank in MCF-7 cells in the order chlorambucil > 4j > 4i > 4h > 4n > 4k > 4l > 4a > 4g > 4b–4f.
(§2) Cultured normal human skin fibroblasts and MCF-7 human breast cancer cells were maintained in DMEM supplemented with 10% fetal bovine serum (FBS), 50 U/cm^3 penicillin, and 50 μg/cm^3 streptomycin at 37 °C. Cells were cultured in Costar flasks and subconfluent cells were detached with 0.05% trypsin and 0.02% EDTA in calcium-free phosphate-buffered saline, counted in hemocytometers, and plated at 5 × 10^5 cells per well of 6-well plates (Nunc) in 2 cm^3 of growth medium (DMEM without phenol red with 10% CPSR1). Cells reached about 80% of confluency at day 3, and in most cases, such cells were used for the assays.
(§3) The assay was performed according to the method of Carmichael using 3-(4,5-dimethylthiazole-2-yl)-2,5-diphenyltetrazolium bromide (MTT). Confluent cells cultured for 24 h with various concentrations of studied compounds in 6-well plates were washed three times with PBS and then incubated for 4 h in 1 cm^3 of MTT solution (0.5 mg/cm^3 of PBS) at 37 °C in 5% CO2 in an incubator. The medium was removed and 1 cm^3 of […] HCl in absolute isopropanol was added to the cells attached. Absorbance of converted dye in the living cells was measured at a wavelength of 570 nm. Cell viability of breast cancer cells cultured in the presence of ligands was calculated as percentage of controlled cells.

The subject of data set [2] is MCF-7 human breast cancer cells. Put plainly: Cell viability (MTT) assay, MCF-7. The format is cell-based. Here is the method: as §1, §2, §3
Data set [3] relates to MCF-7 breast cancer cells. Put plainly: DNA synthesis assay ([3H]-thymidine incorporation), MCF-7. The format is cell-based, human. Here is the method:
We studied the effect of compounds 4a–4n and chlorambucil on DNA synthesis in MCF-7 breast cancer cells (Table 3).
as §2
MCF-7 cells were seeded in 6-well plates and were incubated with varying concentrations of […] or chlorambucil and 0.5 μCi of [^3H]-thymidine for 24 h at 37 °C [51]. The cells were then harvested by trypsinization, washed with cold phosphate-buffered saline, and centrifuged for 10 min at 1500 g several times (4–5) until the dpm in the washes were similar to the reagent control. Radioactivity was determined by liquid scintillation counting. [^3H]-thymidine uptake was expressed as dpm/well.

In data set [4] the test system is human breast cancer cell line (MCF-7 and MDA-MB-231). On the set-up: method as in PMID 26133068. To be noted: cell line not specified (MCF-7 and MDA-MB-231 tested); cited from earlier work.
A short description of data set [5]: Cell viability (MTT) assay, fibroblasts. The data set is classed as cell-based, human. The protocol: as §1, §2, §3
[6] abbreviates: Fibroblasts, 24 h, mean ± SD of four independent experiments.
Where [7] appears, read: MCF-7 cells, 24 h, mean ± SD of four independent experiments, read-out: IC50 inhibition of [3H]-thymidine incorporation into DNA.
[8] abbreviates: Homo sapiens, MCF7, 24 h, read-out: IC50 cytotoxicity (cell viability, MTT).
[9] abbreviates: Homo sapiens, Fibroblast, Fibroblasts, 24 h, mean ± SD of four independent experiments.
[10] abbreviates: Homo sapiens, MCF7, MCF-7 cells, 24 h, mean ± SD of four independent experiments, read-out: IC50 inhibition of [3H]-thymidine incorporation into DNA.

Where two headings read alike, the source gives them in different places.

With “5,6-Diphenyl-1,2,4-triazine-3-yl isobutyl disulfide [Compound 4c]”, the IC50 (with Fibroblasts (setting [6]); in data set [1]; in data set [2]; in data set [3] (setting [7])) was more than 200 µM in each case.
As to “5,6-Diphenyl-1,2,4-triazine-3-yl tert-butyl disulfide [Compound 4d]”, the IC50 (in the data set with Fibroblasts (setting [6]); in data set [1]; in data set [2]; in data set [3] (setting [7])) was more than 200 µM in each case.
Take `c1ccc(-c2nnc(SSc3nnc(-c4ccccc4)c(-c4ccccc4)n3)nc2-c2ccccc2)cc1` [5,5′,6,6′-tetraphenylbis(1,2,4-triazin-3-yl)disulfane]: the IC50 in data set [4] was 25 µM.
Consider `O=C(O)CCCc1ccc(N(CCCl)CCCl)cc1` [Chlorambucil, reference compound], for which the IC50 in the data set with Fibroblasts (Homo sapiens, Fibroblast) came to 120 ± 1 µM; in data set [2] (setting [8]), 97 ± 2 µM; in data set [3] (Homo sapiens, MCF7, read-out: IC50 inhibition of [3H]-thymidine incorporation into DNA), 47 ± 2 µM. Also, the IC50 at 24 h in data set [5] (normal human skin fibroblasts, 24 h, mean ± SD of four independent experiments, read-out: IC50 cytotoxicity (cell viability, MTT)) was found to be 150 ± 1 µM.
`CC(C)SSc1nnc(-c2ccccc2)c(-c2ccccc2)n1` [Compound 4a, 5,6-Diphenyl-1,2,4-triazine-3-yl isopropyl disulfide]: the IC50 in the data set with Fibroblasts (setting [9]) is more than 200 µM; in data set [2] (setting [8]), 190 ± 2 µM; in data set [3] (setting [10]) it was 188 ± 2 µM. In data set [5] (human), this molecule came in with an IC50 at 24 h of more than 200 µM.
For the molecule `CCCCSSc1nnc(-c2ccccc2)c(-c2ccccc2)n1` [Compound 4b, 5,6-Diphenyl-1,2,4-triazine-3-yl n-butyl disulfide], the IC50 (with Fibroblasts (setting [9]); in data set [2] (setting [8]); in data set [3] (setting [10])) was more than 200 µM in each case. The IC50 at 24 h in data set [5] (human) is more than 200 µM.
With `CCCCCSSc1nnc(-c2ccccc2)c(-c2ccccc2)n1` [Compound 4e, 5,6-Diphenyl-1,2,4-triazine-3-yl n-pentyl disulfide], the IC50 (in the data set on Fibroblasts (setting [9]); in data set [2] (setting [8]); in data set [3] (setting [10])) was more than 200 µM each time. Moreover, the IC50 at 24 h in data set [5] (human) is more than 200 µM.
Consider `CCCCCCCCCCCCSSc1nnc(-c2ccccc2)c(-c2ccccc2)n1` [Compound 4f, 5,6-Diphenyl-1,2,4-triazine-3-yl n-dodecyl disulfide], for which the IC50 (in the data set on Fibroblasts (setting [9]); in data set [2] (setting [8]); in data set [3] (setting [10])) was more than 200 µM throughout. This molecule came in with an IC50 at 24 h in data set [5] (human) of more than 200 µM.
With `OCCCCCCCCCCCSSc1nnc(-c2ccccc2)c(-c2ccccc2)n1` [Compound 4g, 5,6-Diphenyl-1,2,4-triazine-3-yl 11-hydroxyundecyl disulfide], the IC50 in the data set with Fibroblasts (setting [9]) is more than 200 µM; in data set [2] (setting [8]), 197 ± 1 µM; in data set [3] (setting [10]), 188 ± 1 µM. The IC50 at 24 h in data set [5] (human) is more than 200 µM.
Consider `c1ccc(SSc2nnc(-c3ccccc3)c(-c3ccccc3)n2)cc1` [Compound 4h, 5,6-Diphenyl-1,2,4-triazine-3-yl phenyl disulfide], for which the IC50 was more than 200 µM in the data set with Fibroblasts (setting [9]), 115 ± 2 µM in data set [2] (setting [8]) and 68 ± 2 µM in data set [3] (setting [10]). Also, in data set [5] (human), the IC50 at 24 h is more than 200 µM.
As to `Cc1ccc(SSc2nnc(-c3ccccc3)c(-c3ccccc3)n2)cc1` [Compound 4i, 5,6-Diphenyl-1,2,4-triazine-3-yl p-tolyl disulfide], the values for the IC50 (in the data set with Fibroblasts (setting [9]); in data set [2] (setting [8]); in data set [3] (setting [10])) were more than 200 µM, 108 ± 1 µM and 60 ± 2 µM, respectively. Further, the IC50 at 24 h in data set [5] (human) is more than 200 µM.
With `COc1ccc(SSc2nnc(-c3ccccc3)c(-c3ccccc3)n2)cc1` [Compound 4j, 5,6-Diphenyl-1,2,4-triazine-3-yl 4-methoxyphenyl disulfide], the IC50 was more than 200 µM with Fibroblasts (setting [9]), 102 ± 2 µM in data set [2] (setting [8]) and 59 ± 2 µM in data set [3] (setting [10]). This molecule registered an IC50 at 24 h in data set [5] (human) of more than 200 µM.
As to `Clc1ccc(SSc2nnc(-c3ccccc3)c(-c3ccccc3)n2)cc1` [Compound 4k, 5,6-Diphenyl-1,2,4-triazine-3-yl 4-chlorophenyl disulfide], the IC50 was more than 200 µM in the data set on Fibroblasts (setting [9]), 121 ± 2 µM in data set [2] (setting [8]) and 83 ± 1 µM in data set [3] (setting [10]). Further, the IC50 at 24 h in data set [5] (human) is more than 200 µM.
Regarding `O=[N+]([O-])c1ccc(SSc2nnc(-c3ccccc3)c(-c3ccccc3)n2)cc1` [Compound 4l, 5,6-Diphenyl-1,2,4-triazine-3-yl 4-nitrophenyl disulfide], the IC50 is more than 200 µM in the data set on Fibroblasts (setting [9]), 140 ± 1 µM in data set [2] (setting [8]) and 142 ± 1 µM in data set [3] (setting [10]). The IC50 at 24 h in data set [5] (human) is more than 200 µM.
With `c1ccc(-c2nnc(SSc3nc4ccccc4s3)nc2-c2ccccc2)cc1` [Compound 4n, 5,6-Diphenyl-1,2,4-triazine-3-yl benzothiazol-2-yl disulfide], the IC50 in the data set with Fibroblasts (setting [9]) was more than 200 µM; in data set [2] (setting [8]), 119 ± 2 µM; in data set [3] (setting [10]), 75 ± 2 µM. The same molecule came in with an IC50 at 24 h in data set [5] (human) of more than 200 µM.
